In ChEMBL document CHEMBL3885861, “Open TG-GATES”:

Species on record: Rattus norvegicus
Assay: Open TG-GATES - Regimen: Daily Repeat
Format: toxicity, organism-based, Sprague-Dawley
Design: regimen Daily Repeat, gender Male, age 6 weeks
Conditions: in vivo, po, 0 mg/kg, route gavage, dose level Control; for APTT / Bas / Eos / Fbg / Hb / Ht / Lym / MCH / MCHC / MCV / Mono / Neu / PT / Plat / RBC / Ret / WBC: tissue Blood; for KIDNEY_L / KIDNEY_R / KIDNEY_TOTAL: tissue Kidney; for LIVER: tissue Liver; for ALP / ALT / AST / BUN / CRE / Ca / Cl / DBIL / GLC / IP / K / LDH / Na / PL / RALB / TBIL / TC / TG / TP / gamma-GTP: tissue Plasma

O=P1(N(CCCl)CCCl)NCCCO1 (stereo not drawn) [CYCLOPHOSPHAMIDE ANHYDROUS]
TERMINAL_BW (72 h, time 3 day): 215.1 g
APTT (72 h, time 3 day): 21.5 s
Bas (72 h, time 3 day): 0%
Eos (72 h, time 3 day): 0.8%
Fbg (72 h, time 3 day): 293.2 mg/dL
Hb (72 h, time 3 day): 13.3 g/dL
Ht (72 h, time 3 day): 40.1%
Lym (72 h, time 3 day): 81.4%
MCH (72 h, time 3 day): 21.8 pg
MCHC (72 h, time 3 day): 33.2%
MCV (72 h, time 3 day): 65.7 fL
Mono (72 h, time 3 day): 2.6%
Neu (72 h, time 3 day): 14.6%
PT (72 h, time 3 day): 16.8 s
Plat (72 h, time 3 day): 112 x10_4/uL
RBC (72 h, time 3 day): 611 x10_4/ul
Ret (72 h, time 3 day): 6.7%
WBC (72 h, time 3 day): 82.4 x10_2/uL
KIDNEY_L (72 h, time 3 day): 0.9 g
KIDNEY_R (72 h, time 3 day): 0.9 g
KIDNEY_TOTAL (72 h, time 3 day): 1.9 g
LIVER (72 h, time 3 day): 10.1 g
ALP (72 h, time 3 day): 1749.2 IU/L
ALT (72 h, time 3 day): 40.2 IU/L
AST (72 h, time 3 day): 68 IU/L
BUN (72 h, time 3 day): 15.4 mg/dL
CRE (72 h, time 3 day): 0.2 mg/dL
Ca (72 h, time 3 day): 10.8 mg/dL
Cl (72 h, time 3 day): 106.2 meq/L
DBIL (72 h, time 3 day): 0.002 mg/dL
GLC (72 h, time 3 day): 182.6 mg/dL
IP (72 h, time 3 day): 6.4 mg/dL
K (72 h, time 3 day): 3.9 meq/L
LDH (72 h, time 3 day): 190.6 IU/L
Na (72 h, time 3 day): 142.6 meq/L
PL (72 h, time 3 day): 133.8 mg/dL
RALB (72 h, time 3 day): 3.1 g/dL
TBIL (72 h, time 3 day): 0.018 mg/dL
TC (72 h, time 3 day): 69.6 mg/dL
TG (72 h, time 3 day): 84.2 mg/dL
TP (72 h, time 3 day): 5.5 g/dL
gamma-GTP (72 h, time 3 day): 1 IU/L
TERMINAL_BW ([…], time 7 day): 254.4 g
TERMINAL_BW ([…], time 14 day): 304.2 g
TERMINAL_BW ([…], time 28 day): 368.5 g
APTT ([…], time 7 day): 21.7 s
Bas ([…], time 7 day): 0%
Eos ([…], time 7 day): 1%
Fbg ([…], time 7 day): 283.2 mg/dL
Hb ([…], time 7 day): 13.1 g/dL
Ht ([…], time 7 day): 39.7%
Lym ([…], time 7 day): 80%
MCH ([…], time 7 day): 20.7 pg
MCHC ([…], time 7 day): 33.1%
MCV ([…], time 7 day): 62.7 fL
Mono ([…], time 7 day): 2.4%
Neu ([…], time 7 day): 16.2%
PT ([…], time 7 day): 16.8 s
Plat ([…], time 7 day): 112.1 x10_4/uL
RBC ([…], time 7 day): 633.4 x10_4/ul
Ret ([…], time 7 day): 6.1%
WBC ([…], time 7 day): 106.9 x10_2/uL
APTT ([…], time 14 day): 22 s
Bas ([…], time 14 day): 0%
Eos ([…], time 14 day): 1%
Fbg ([…], time 14 day): 307.8 mg/dL
Hb ([…], time 14 day): 13.7 g/dL
Ht ([…], time 14 day): 40.6%
Lym ([…], time 14 day): 81.4%
MCH ([…], time 14 day): 20.2 pg
MCHC ([…], time 14 day): 33.7%
MCV ([…], time 14 day): 60 fL
Mono ([…], time 14 day): 2.2%
Neu ([…], time 14 day): 14.6%
PT ([…], time 14 day): 15 s
Plat ([…], time 14 day): 118.8 x10_4/uL
RBC ([…], time 14 day): 676.6 x10_4/ul
Ret ([…], time 14 day): 4.8%
WBC ([…], time 14 day): 131.2 x10_2/uL
APTT ([…], time 28 day): 23.8 s
Bas ([…], time 28 day): 0%
Eos ([…], time 28 day): 1%
Fbg ([…], time 28 day): 303.8 mg/dL
Hb ([…], time 28 day): 14.8 g/dL
Ht ([…], time 28 day): 43.6%
Lym ([…], time 28 day): 82.4%
MCH ([…], time 28 day): 19.2 pg
MCHC ([…], time 28 day): 34%
MCV ([…], time 28 day): 56.6 fL
Mono ([…], time 28 day): 2%
Neu ([…], time 28 day): 13.6%
PT ([…], time 28 day): 16.5 s
Plat ([…], time 28 day): 96.2 x10_4/uL
RBC ([…], time 28 day): 769.8 x10_4/ul
Ret ([…], time 28 day): 2.9%
WBC ([…], time 28 day): 112.3 x10_2/uL
KIDNEY_L ([…], time 7 day): 1.1 g
KIDNEY_R ([…], time 7 day): 1.1 g
KIDNEY_TOTAL ([…], time 7 day): 2.2 g
KIDNEY_L ([…], time 14 day): 1.2 g
KIDNEY_R ([…], time 14 day): 1.2 g
KIDNEY_TOTAL ([…], time 14 day): 2.4 g
KIDNEY_L ([…], time 28 day): 1.3 g
KIDNEY_R ([…], time 28 day): 1.3 g
KIDNEY_TOTAL ([…], time 28 day): 2.6 g
LIVER ([…], time 7 day): 11 g
LIVER ([…], time 14 day): 13.4 g
LIVER ([…], time 28 day): 14.2 g
ALP ([…], time 7 day): 1566.6 IU/L
ALT ([…], time 7 day): 44.8 IU/L
AST ([…], time 7 day): 77.6 IU/L
BUN ([…], time 7 day): 18.6 mg/dL
CRE ([…], time 7 day): 0.2 mg/dL
Ca ([…], time 7 day): 10.7 mg/dL
Cl ([…], time 7 day): 106 meq/L
DBIL ([…], time 7 day): 0 mg/dL
GLC ([…], time 7 day): 196.2 mg/dL
IP ([…], time 7 day): 7.9 mg/dL
K ([…], time 7 day): 4.4 meq/L
LDH ([…], time 7 day): 200.2 IU/L
Na ([…], time 7 day): 143.8 meq/L
PL ([…], time 7 day): 146.8 mg/dL
RALB ([…], time 7 day): 2.9 g/dL
TBIL ([…], time 7 day): 0.016 mg/dL
TC ([…], time 7 day): 73.8 mg/dL
TG ([…], time 7 day): 98.2 mg/dL
TP ([…], time 7 day): 5.4 g/dL
gamma-GTP ([…], time 7 day): 1.6 IU/L
ALP ([…], time 14 day): 1394.4 IU/L
ALT ([…], time 14 day): 37.8 IU/L
AST ([…], time 14 day): 65.8 IU/L
BUN ([…], time 14 day): 18.2 mg/dL
CRE ([…], time 14 day): 0.2 mg/dL
Ca ([…], time 14 day): 10.6 mg/dL
Cl ([…], time 14 day): 107 meq/L
DBIL ([…], time 14 day): 0 mg/dL
GLC ([…], time 14 day): 182.6 mg/dL
IP ([…], time 14 day): 7 mg/dL
K ([…], time 14 day): 4 meq/L
LDH ([…], time 14 day): 152 IU/L
Na ([…], time 14 day): 143.4 meq/L
PL ([…], time 14 day): 140.4 mg/dL
RALB ([…], time 14 day): 2.9 g/dL
TBIL ([…], time 14 day): 0.012 mg/dL
TC ([…], time 14 day): 67.4 mg/dL
TG ([…], time 14 day): 147.4 mg/dL
TP ([…], time 14 day): 5.7 g/dL
gamma-GTP ([…], time 14 day): 1.4 IU/L
ALP ([…], time 28 day): 1084 IU/L
ALT ([…], time 28 day): 40.4 IU/L
AST ([…], time 28 day): 66.4 IU/L
BUN ([…], time 28 day): 17.4 mg/dL
CRE ([…], time 28 day): 0.2 mg/dL
Ca ([…], time 28 day): 10.3 mg/dL
Cl ([…], time 28 day): 106.6 meq/L
DBIL ([…], time 28 day): 0 mg/dL
GLC ([…], time 28 day): 181.2 mg/dL
IP ([…], time 28 day): 6.4 mg/dL
K ([…], time 28 day): 4 meq/L
LDH ([…], time 28 day): 121.8 IU/L
Na ([…], time 28 day): 144 meq/L
PL ([…], time 28 day): 135.4 mg/dL
RALB ([…], time 28 day): 3.1 g/dL
TBIL ([…], time 28 day): 0.02 mg/dL
TC ([…], time 28 day): 67 mg/dL
TG ([…], time 28 day): 111.2 mg/dL
TP ([…], time 28 day): 6.2 g/dL
gamma-GTP ([…], time 28 day): 1.2 IU/L
